From ChEMBL document CHEMBL4507292 (2021)

Key:
[1] = target: Histamine H4 receptor (Homo sapiens) (UniProt Q9H3N8); assay: Histamine H4 Eurofins-Panlabs radioligand binding assay; details: Compound concentration 10.0 uM
[2] = target: Synaptic vesicular amine transporter (Homo sapiens) (UniProt Q05940); details: Oryctolagus cuniculus
[3] = target: Neutrophil elastase (Homo sapiens) (UniProt P08246); assay: Peptidase, ELA2 (Neutrophil Elastase 2) Eurofins-Panlabs enzyme assay; details: Compound concentration 30.0 uM
Neutrophil elastase (Homo sapiens), sequence (P08246 whole entry): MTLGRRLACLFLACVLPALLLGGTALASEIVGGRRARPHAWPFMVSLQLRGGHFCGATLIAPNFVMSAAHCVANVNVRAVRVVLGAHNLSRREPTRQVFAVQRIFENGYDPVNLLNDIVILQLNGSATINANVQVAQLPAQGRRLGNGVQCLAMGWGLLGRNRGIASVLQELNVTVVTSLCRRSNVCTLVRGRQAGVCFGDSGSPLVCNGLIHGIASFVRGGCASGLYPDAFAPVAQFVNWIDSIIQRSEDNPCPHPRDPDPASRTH

[4] = target: Substance-P receptor (Homo sapiens) (UniProt P25103); assay: Tachykinin NK1 Eurofins-Panlabs radioligand binding assay; details: Compound concentration 10.0 uM
Substance-P receptor (Homo sapiens), sequence (P25103 whole entry): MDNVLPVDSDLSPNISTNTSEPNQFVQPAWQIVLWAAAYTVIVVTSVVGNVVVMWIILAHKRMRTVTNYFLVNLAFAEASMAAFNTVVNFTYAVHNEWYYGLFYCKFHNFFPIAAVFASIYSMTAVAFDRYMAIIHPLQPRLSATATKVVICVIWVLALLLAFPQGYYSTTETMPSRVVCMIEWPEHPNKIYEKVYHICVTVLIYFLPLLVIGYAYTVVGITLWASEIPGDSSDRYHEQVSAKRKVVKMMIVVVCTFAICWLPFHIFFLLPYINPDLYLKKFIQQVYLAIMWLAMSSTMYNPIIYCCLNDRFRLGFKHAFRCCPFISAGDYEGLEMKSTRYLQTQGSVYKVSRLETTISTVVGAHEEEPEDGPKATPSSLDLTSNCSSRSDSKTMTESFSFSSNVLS

Caspase-6 (Homo sapiens) = Caspase-6 (Homo sapiens) (UniProt P55212); assay: Peptidase, CASP6 (Caspase 6) Eurofins-Panlabs enzyme assay; design: substrate with concentration; details: Compound concentration 10.0 uM
Caspase-6 (Homo sapiens), sequence (P55212 24-179 limits assumed): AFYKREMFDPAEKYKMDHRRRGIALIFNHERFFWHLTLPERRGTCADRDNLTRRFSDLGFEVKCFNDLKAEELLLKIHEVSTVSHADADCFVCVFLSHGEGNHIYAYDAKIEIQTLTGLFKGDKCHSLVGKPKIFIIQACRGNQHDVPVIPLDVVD
Caspase-6 (Homo sapiens), sequence (P55212 194-293 limits assumed): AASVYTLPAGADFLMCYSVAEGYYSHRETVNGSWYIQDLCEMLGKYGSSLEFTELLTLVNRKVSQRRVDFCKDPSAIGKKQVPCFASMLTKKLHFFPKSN

[5] = target: Bombesin receptor (Rattus norvegicus) (UniProt P52500+P24053+Q8K418); assay: Bombesin, Non-Selective Eurofins-Panlabs radioligand binding assay; assay type: protein assay; details: Compound concentration 10.0 uM
[6] = target: Histamine H3 receptor (Homo sapiens) (UniProt Q9Y5N1); assay: Histamine H3 Eurofins-Panlabs radioligand binding assay; details: Compound concentration 10.0 uM
Histamine H3 receptor (Homo sapiens), sequence (Q9Y5N1 whole entry): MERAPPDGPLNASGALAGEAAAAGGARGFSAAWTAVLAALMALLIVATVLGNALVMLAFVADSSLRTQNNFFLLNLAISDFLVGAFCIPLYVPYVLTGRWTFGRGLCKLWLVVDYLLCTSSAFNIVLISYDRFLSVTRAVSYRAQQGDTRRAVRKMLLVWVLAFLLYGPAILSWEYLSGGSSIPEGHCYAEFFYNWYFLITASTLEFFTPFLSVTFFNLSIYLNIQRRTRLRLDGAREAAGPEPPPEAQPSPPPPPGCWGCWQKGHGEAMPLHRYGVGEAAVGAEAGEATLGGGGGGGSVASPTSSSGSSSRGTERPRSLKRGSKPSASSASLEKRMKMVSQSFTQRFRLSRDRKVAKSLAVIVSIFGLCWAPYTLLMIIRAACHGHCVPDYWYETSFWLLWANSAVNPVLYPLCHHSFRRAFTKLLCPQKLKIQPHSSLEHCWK

[7] = target: Cholecystokinin receptor type A (Homo sapiens) (UniProt P32238); assay: Inhibition of Cholecystokinin CCK1 (CCKA) at 10 µM in the Eurofins-Panlabs radioligand binding assay (Eurofins_assay_218020)
Cholecystokinin receptor type A (Homo sapiens), sequence (P32238 whole entry): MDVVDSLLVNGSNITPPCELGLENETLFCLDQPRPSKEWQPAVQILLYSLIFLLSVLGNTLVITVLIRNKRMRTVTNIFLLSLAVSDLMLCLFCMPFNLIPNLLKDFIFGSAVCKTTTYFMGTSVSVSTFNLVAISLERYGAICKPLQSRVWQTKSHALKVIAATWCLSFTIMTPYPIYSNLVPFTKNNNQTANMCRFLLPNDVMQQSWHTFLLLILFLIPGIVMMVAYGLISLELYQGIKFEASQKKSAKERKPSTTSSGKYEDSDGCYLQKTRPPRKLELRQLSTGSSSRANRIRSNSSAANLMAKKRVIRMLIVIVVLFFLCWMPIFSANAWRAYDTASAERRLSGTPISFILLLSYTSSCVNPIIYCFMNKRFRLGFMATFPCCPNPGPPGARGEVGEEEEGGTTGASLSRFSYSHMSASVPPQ

[8] = target: Phosphodiesterase PDE1 (Bos taurus) (UniProt Q01061+P14100+A0A3Q1MCV4); assay: (§1) Phosphodiesterase PDE1 Eurofins-Panlabs enzyme assay; assay type: protein assay; design: substrate with concentration [3H] cAMP + cAMP, incubation time 20 min, incubation temperature 25 °C
Phosphodiesterase PDE1 = Phosphodiesterase PDE1 (Bos taurus, UniProt Q01061+P14100+A0A3Q1MCV4); assay: as §1; assay type: protein assay; design: substrate with concentration [3H] cAMP + cAMP, incubation time 20 min, incubation temperature 25 °C
[9] = target: Receptor-type tyrosine-protein phosphatase C (Homo sapiens) (UniProt P08575); assay: Inhibition of Protein Tyrosine Phosphatase, PTPRC (CD45) at 10 µM in the Eurofins-Panlabs enzyme assay (Eurofins_assay_190010); details: Compound concentration 10.0 uM
[10] = target: cGMP-specific 3',5'-cyclic phosphodiesterase (Homo sapiens, UniProt O76074)
[11] = target: Adenosine Transporter (Cavia porcellus) (UniProt H0V4R7+H0UUG1+H0V3Z5); assay: Inhibition of Transporter, Adenosine at compound concentration of 10.0 uM in the Eurofins-Panlabs radioligand binding assay (Eurofins_assay_202000); assay type: protein assay; design: ligand concentration 0.5 nM, non-specific ligand with concentration 5 uM Nitrobenzylthioinosine, incubation time 30 min, incubation temperature 25 C; details: Compound concentration 10.0 uM
Insulin receptor = Insulin receptor (Homo sapiens, UniProt P06213); assay: Protein Tyrosine Kinase, Insulin Receptor Eurofins-Panlabs enzyme assay; design: substrate with concentration 10 µg/mL […], incubation time 60 min, incubation temperature 25 °C
Insulin receptor, sequence (P06213 28-758 limits assumed): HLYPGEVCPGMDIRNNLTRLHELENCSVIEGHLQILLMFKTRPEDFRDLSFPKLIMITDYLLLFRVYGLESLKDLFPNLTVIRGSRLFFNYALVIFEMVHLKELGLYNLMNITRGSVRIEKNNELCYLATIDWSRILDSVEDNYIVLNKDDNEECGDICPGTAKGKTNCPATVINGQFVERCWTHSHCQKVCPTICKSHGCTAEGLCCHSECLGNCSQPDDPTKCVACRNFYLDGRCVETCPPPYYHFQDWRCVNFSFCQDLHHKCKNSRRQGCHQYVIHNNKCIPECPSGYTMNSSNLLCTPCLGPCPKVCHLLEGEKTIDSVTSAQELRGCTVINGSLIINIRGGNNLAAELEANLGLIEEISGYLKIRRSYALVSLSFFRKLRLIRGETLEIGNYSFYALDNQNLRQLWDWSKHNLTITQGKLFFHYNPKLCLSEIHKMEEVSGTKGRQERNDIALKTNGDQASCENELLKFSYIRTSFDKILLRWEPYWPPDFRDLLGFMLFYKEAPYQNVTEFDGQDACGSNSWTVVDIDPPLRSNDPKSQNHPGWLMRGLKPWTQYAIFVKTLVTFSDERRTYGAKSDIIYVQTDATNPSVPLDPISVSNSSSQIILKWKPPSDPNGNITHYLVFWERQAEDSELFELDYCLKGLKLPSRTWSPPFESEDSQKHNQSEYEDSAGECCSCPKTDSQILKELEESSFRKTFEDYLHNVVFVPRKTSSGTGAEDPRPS
Insulin receptor, sequence (P06213 763-1382 limits assumed): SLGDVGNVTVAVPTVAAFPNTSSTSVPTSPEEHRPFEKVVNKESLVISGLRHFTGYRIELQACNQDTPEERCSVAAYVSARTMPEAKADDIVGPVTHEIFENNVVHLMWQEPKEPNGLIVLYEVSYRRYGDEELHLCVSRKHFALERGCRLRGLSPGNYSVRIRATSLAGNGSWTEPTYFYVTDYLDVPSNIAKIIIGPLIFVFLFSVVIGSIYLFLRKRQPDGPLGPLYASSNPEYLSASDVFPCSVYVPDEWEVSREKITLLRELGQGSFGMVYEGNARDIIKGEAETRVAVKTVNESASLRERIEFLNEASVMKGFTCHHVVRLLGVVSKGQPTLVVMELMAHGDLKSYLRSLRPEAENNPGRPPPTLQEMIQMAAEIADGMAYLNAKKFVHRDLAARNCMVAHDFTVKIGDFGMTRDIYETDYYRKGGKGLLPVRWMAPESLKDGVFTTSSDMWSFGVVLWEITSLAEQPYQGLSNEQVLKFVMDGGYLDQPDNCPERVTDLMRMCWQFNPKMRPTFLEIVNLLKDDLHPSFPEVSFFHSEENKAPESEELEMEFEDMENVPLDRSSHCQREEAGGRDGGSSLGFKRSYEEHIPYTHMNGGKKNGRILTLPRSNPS

[12] = target: Epidermal growth factor receptor (Homo sapiens, UniProt P00533); assay: Inhibition of Epidermal Growth Factor (EGF) at 10 µM in the Eurofins-Panlabs radioligand binding assay (Eurofins_assay_225510)
[13] = target: Melatonin receptor (Gallus gallus) (UniProt P49288+P51050+P49285); assay: Melatonin MT, Non-Selective Eurofins-Panlabs radioligand binding assay; assay type: protein assay; details: Compound concentration 10.0 uM
[14] = target: Alpha-2A adrenergic receptor (Homo sapiens, UniProt P08913); assay: (§2) Adrenergic alpha2A Eurofins-Panlabs radioligand binding assay; design: ligand concentration 1 nM, non-specific ligand with concentration 10 µM WB-4101, incubation time 60 min, incubation temperature 25 °C
[15] = target: T1, Alpha-2A adrenergic receptor (Homo sapiens) (UniProt P08913); assay: as §2; design: ligand concentration 1 nM, non-specific ligand with concentration 10 µM WB-4101, incubation time 60 min, incubation temperature 25 °C
T1 sequence (whole entry): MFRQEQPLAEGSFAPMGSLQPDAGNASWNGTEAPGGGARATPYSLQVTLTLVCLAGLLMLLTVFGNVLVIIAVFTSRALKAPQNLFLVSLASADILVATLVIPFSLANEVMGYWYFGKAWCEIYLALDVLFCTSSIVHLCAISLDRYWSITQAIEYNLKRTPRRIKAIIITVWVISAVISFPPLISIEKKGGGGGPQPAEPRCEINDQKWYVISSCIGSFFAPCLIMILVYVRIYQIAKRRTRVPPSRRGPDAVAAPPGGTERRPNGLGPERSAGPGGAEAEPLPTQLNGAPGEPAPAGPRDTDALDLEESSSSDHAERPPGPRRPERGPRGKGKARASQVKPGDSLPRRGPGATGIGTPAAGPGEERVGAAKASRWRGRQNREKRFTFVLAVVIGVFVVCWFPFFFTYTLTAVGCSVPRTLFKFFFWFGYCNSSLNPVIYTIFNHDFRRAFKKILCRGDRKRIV

[16] = target: Peroxisome proliferator-activated receptor gamma (Homo sapiens) (UniProt P37231); assay: PPARgamma Eurofins-Panlabs radioligand binding assay; design: ligand concentration 5 nM, non-specific ligand with concentration 0.5 µM L-797773, incubation time 18 h, incubation temperature 15 °C; details: Compound concentration 10.0 uM
[17] = target: GABA-A receptor; anion channel (Rattus norvegicus) (UniProt O09028+P15431+P18506+P18508+P19969+P20236+P23574+P23576+P28471+P28473+P30191+P62813+P63079+P63138+Q91ZM7+Q9ES14); assay: Inhibition of GABAA, Muscimol, Central at 10 µM in the Eurofins-Panlabs radioligand binding assay (Eurofins_assay_226500); assay type: protein-complex assay; details: Compound concentration 10.0 uM
Homo sapiens = species on record: Homo sapiens; assay: (§3) Protein Serine/Threonine Kinase, MAPK14 (p38α) Eurofins-Panlabs enzyme assay; design: substrate with concentration 10 µg/mL Myelin Basic Protein (MBP), incubation time 60 min, incubation temperature 25 °C
[18] = as §3; design: species or system Homo sapiens; substrate with concentration 10 µg/mL Myelin Basic Protein (MBP), incubation time 60 min, incubation temperature 25 °C
[19] = target: Prostaglandin E2 receptor EP4 subtype (Homo sapiens) (UniProt P35408); assay: Prostanoid EP4 Eurofins-Panlabs radioligand binding assay; design: ligand concentration 0.5 nM; details: Compound concentration 10.0 uM
[20] = target: Nociceptin receptor (Homo sapiens) (UniProt P41146); assay: Orphanin ORL1 Eurofins-Panlabs radioligand binding assay; details: Compound concentration 10.0 uM
[21] = target: Calcitonin receptor (Homo sapiens) (UniProt P30988); assay: Inhibition of Calcitonin at 10 µM in the Eurofins-Panlabs radioligand binding assay (Eurofins_assay_213610)
[22] = target: Mu-type opioid receptor (Homo sapiens) (UniProt P35372); details: Compound concentration 10.0 uM
Mu-type opioid receptor (Homo sapiens), sequence (P35372 whole entry): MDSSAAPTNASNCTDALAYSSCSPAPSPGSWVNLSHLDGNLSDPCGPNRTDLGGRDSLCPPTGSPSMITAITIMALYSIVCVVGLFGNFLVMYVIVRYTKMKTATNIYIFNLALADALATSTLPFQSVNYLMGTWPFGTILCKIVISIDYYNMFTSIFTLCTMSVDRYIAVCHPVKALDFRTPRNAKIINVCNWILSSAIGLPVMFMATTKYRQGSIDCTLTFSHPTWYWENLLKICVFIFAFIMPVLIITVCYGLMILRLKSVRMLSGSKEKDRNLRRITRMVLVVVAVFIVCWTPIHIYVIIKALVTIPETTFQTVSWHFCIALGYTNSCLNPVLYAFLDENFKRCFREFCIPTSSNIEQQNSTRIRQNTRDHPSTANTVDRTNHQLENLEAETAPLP

D(1B) dopamine receptor = D(1B) dopamine receptor (Homo sapiens, UniProt P21918); assay: Dopamine D5 Eurofins-Panlabs radioligand binding assay; details: concentration not given here
D(1B) dopamine receptor, sequence (P21918 whole entry): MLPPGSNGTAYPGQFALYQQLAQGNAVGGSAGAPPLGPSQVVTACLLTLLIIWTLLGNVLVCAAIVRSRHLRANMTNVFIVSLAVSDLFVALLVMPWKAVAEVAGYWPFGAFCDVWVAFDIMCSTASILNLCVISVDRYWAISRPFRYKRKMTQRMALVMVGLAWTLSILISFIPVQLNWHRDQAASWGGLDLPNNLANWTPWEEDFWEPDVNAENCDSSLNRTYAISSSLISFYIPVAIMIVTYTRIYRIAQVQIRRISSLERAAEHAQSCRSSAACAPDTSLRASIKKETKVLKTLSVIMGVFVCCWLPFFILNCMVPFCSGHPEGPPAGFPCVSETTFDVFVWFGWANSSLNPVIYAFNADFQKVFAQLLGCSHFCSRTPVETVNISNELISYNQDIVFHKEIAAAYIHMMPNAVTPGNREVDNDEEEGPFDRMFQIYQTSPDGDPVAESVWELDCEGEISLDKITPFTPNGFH

Synaptic vesicular amine transporter (Homo sapiens), sequence (Q05940 whole entry): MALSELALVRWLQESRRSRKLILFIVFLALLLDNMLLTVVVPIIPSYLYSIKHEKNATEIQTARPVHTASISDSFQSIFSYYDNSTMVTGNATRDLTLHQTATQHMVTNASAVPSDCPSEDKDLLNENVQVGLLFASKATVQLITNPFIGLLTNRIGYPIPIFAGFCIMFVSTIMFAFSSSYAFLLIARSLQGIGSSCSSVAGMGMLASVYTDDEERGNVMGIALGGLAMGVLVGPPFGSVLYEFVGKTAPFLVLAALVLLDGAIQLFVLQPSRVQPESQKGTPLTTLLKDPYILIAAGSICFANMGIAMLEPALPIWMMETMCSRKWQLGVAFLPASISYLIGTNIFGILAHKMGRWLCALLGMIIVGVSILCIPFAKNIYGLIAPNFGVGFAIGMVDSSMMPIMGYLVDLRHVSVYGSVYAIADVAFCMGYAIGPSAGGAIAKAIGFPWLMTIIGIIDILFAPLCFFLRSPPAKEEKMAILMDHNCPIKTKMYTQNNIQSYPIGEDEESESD
Histamine H4 receptor (Homo sapiens), sequence (Q9H3N8 whole entry): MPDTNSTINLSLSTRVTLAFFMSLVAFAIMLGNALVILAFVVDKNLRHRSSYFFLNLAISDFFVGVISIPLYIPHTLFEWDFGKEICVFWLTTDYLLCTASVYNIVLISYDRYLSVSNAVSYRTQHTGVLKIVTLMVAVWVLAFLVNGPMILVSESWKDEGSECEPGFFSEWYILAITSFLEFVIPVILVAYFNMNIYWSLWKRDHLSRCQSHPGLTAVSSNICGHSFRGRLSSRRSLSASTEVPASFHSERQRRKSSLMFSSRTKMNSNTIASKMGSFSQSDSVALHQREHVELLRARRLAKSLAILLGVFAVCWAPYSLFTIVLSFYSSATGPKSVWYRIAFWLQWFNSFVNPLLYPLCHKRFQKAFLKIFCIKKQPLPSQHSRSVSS

SMILES: O=C(O)c1cc(-c2ccc(C3CCNCC3)cc2)c2ccc(-c3ccc(C(F)(F)F)cc3)cc2c1 [PPTN]
- inhibition [1]: 15%
- inhibition ([2]; Compound concentration 0.01 uM): -8%
- inhibition ([2]; Compound concentration 0.1 uM): 8%
- inhibition ([2]; Compound concentration 1.0 uM): 41%
- inhibition ([2]; Compound concentration 10.0 uM): 59%
- inhibition [3]: -4%
- inhibition [4]: 1%
- inhibition (Caspase-6 (Homo sapiens)): -8%
- inhibition [5]: 4%
- inhibition [6]: 0%
- inhibition [7]: 10%
- inhibition ([8]; Compound concentration 0.1 uM): -8%
- inhibition ([8]; Compound concentration 1.0 uM): -5%
- inhibition ([8]; Compound concentration 10.0 uM): 51%
- inhibition ([8]; Compound concentration 100.0 uM): 70%
- IC50 (Phosphodiesterase PDE1): 17.6 µM
- inhibition [9]: -7%
- IC50 [10]: 38.2 µM
- inhibition [11]: 9%
- IC50 (Insulin receptor): 4.31 µM
- inhibition (Insulin receptor; Compound concentration 0.01 uM): 1%
- inhibition (Insulin receptor; Compound concentration 0.1 uM): -10%
- inhibition (Insulin receptor; Compound concentration 1.0 uM): 14%
- inhibition (Insulin receptor; Compound concentration 10.0 uM): 75%
- inhibition [12]: 35%
- inhibition [13]: -7%
- IC50 [14]: 4.07 µM
- Ki [14]: 1.53 µM
- inhibition ([15]; Compound concentration 0.01 uM): 9%
- inhibition ([15]; Compound concentration 0.1 uM): 13%
- inhibition ([15]; Compound concentration 1.0 uM): 11%
- inhibition ([15]; Compound concentration 10.0 uM): 78%
- inhibition [16]: 4%
- inhibition [17]: 12%
- inhibition (Homo sapiens; Compound concentration 0.01 uM): 9%
- inhibition (Homo sapiens; Compound concentration 0.1 uM): 0%
- inhibition (Homo sapiens; Compound concentration 1.0 uM): -7%
- IC50 [18]: 0.00294 µM
- inhibition [19]: 37%
- inhibition [20]: 12%
- inhibition [21]: 5%
- inhibition [22]: -1%
- inhibition (D(1B) dopamine receptor): 7%
